This experiment concerns the target Vascular endothelial growth factor receptor 1 (Homo sapiens, UniProt P17948). The experiment is described as follows: AlphaScreen Assay: In AlphaScreen, when the donor and acceptor beads are close in proximity, a series of photochemical events will give rise to a fluorescent signal upon light activation. Here we use biotinylated poly-(Glu, Tyr) 4:1 as the kinase substrate, streptavidin-coated donor beads and anti-phosphortyrosine antibody PY100-coated acceptor beads. Upon phosphorylation, the peptide substrate ….

What is called IC50 is the concentration needed to halve the response being measured.

Each structure is given as a SMILES string.

Chain of Vascular endothelial growth factor receptor 1 (P17948 whole entry): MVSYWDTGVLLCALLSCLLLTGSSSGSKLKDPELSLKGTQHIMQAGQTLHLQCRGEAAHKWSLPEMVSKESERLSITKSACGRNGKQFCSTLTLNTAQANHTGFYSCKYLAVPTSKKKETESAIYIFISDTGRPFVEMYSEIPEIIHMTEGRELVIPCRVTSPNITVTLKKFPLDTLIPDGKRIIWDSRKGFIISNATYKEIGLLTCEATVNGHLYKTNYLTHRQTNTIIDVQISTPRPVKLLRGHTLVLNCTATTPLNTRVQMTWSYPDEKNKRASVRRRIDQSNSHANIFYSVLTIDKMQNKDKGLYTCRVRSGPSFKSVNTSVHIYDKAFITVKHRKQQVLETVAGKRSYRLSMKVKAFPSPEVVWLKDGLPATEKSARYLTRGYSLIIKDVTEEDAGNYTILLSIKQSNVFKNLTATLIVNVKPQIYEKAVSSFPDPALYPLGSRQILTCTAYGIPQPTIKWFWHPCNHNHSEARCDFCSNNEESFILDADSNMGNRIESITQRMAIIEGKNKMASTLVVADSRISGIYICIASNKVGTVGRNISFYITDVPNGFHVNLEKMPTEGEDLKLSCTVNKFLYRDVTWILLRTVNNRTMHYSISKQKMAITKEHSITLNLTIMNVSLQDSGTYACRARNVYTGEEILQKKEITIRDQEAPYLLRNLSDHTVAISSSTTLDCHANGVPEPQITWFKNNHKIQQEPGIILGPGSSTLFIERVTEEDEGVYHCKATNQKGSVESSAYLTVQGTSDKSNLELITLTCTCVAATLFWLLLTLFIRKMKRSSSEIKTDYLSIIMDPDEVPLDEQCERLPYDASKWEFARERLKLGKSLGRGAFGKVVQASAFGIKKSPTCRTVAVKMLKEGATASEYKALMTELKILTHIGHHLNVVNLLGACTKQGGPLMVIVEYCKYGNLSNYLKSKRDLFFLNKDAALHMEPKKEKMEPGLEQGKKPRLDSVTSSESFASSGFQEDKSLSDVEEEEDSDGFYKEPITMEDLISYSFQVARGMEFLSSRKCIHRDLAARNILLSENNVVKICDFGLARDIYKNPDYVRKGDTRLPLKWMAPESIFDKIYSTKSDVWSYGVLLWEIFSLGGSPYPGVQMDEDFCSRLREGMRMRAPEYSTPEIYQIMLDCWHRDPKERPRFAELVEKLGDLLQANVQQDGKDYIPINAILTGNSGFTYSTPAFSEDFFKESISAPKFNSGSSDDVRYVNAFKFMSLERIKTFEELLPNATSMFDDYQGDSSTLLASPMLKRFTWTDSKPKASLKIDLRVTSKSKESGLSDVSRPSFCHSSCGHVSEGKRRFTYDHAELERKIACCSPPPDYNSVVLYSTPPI

Molecule `COc1cc2c(Nc3cc(Cl)c(Br)cc3F)ncnc2cc1OC[C@@H]1CN2CCOCC2CO1` (stereo not given in full) had an IC50 of 50 to 1000 nM.
To `COc1cc2c(Nc3ccc(F)c(Cl)c3F)ncnc2cc1OC[C@@H]1CN2CCOCC2CO1` (stereo not given in full) belongs 50 to 1000 nM; to `COc1cc2c(Nc3ccc(Br)c(Cl)c3F)ncnc2cc1OC[C@H]1CN2CCOCC2CO1` (stereo not given in full), 50 to 1000 nM; to `COc1cc2c(Nc3cc(Cl)c(Br)cc3F)ncnc2cc1OC[C@H]1CN2CCOCC2CO1` (stereo not given in full), 50 to 1000 nM.
Regarding `COc1cc2c(Nc3ccc(Cl)c(Cl)c3F)ncnc2cc1OC[C@H]1CN2CCOCC2CO1` (stereo not given in full), the IC50 is 50 to 1000 nM.
To `COc1cc2c(Nc3cc(Cl)c(Cl)cc3F)ncnc2cc1OC[C@H]1CN2CCOCC2CO1` (stereo not given in full) belongs 50 to 1000 nM; to `COc1cc2c(Nc3cc(Cl)c(Cl)cc3F)ncnc2cc1OC[C@@H]1CN2CCOCC2CO1` (stereo not given in full), 50 to 1000 nM; to `COc1cc2c(Nc3ccc(F)c(Cl)c3F)ncnc2cc1O[C@H]1CO[C@H]2[C@@H]1OC[C@@H]2OC`, 1000 to 20000 nM.
To `COc1cc2c(Nc3ccc(F)c(Cl)c3F)ncnc2cc1OC[C@H]1CN2CCOCC2CO1` (stereo not given in full) belongs 50 to 1000 nM; to `COc1cc2c(Nc3ccc(Cl)c(Cl)c3F)ncnc2cc1OC[C@H]1C[C@@H]2CN(C)C[C@@H]2C1`, 50 to 1000 nM.

(Values after ChEMBL document CHEMBL5726547, “Substituted quinazolines as receptor-type kinase inhibitors” (2017).)
